In patent US7795239B2, “Saccharide compositions and method of use” (Mueller Medical International LLC, priority 1992, dated 2010):

Design: AUC for Cimetidine / AUC for Ranitidine: unit not given beside the values
Details: in vivo

Compound	AUC for Cimetidine	dissolved drug not absorbed from the GI tract into the blood stream	AUC for Ranitidine
CN/C(=N/CCSCc1nc[nH]c1C)NC#N [cimetidine]	54.3	15-20%	
NC(N)=Nc1nc(CSCCC(N)=NS(N)(=O)=O)cs1 [famotidine]		15-20%	
CNC(=C[N+](=O)[O-])NCCSCc1ccc(CN(C)C)o1 [ranitidine]		15-20%	55.2
